In patent US20140221340A1 (KYOWA HAKKO KIRIN CO., LTD., priority 2011, published 2014):

Molecular target: T1, human CCR10 (Homo sapiens, UniProt P46092)
T1 construct: expressed in transfected cells; host or cells: KJMGER8 cell (cell line derived from Namalwa cell); expression induced with 10 nmol/L β-estradiol
T1 sequence (P46092 1-362): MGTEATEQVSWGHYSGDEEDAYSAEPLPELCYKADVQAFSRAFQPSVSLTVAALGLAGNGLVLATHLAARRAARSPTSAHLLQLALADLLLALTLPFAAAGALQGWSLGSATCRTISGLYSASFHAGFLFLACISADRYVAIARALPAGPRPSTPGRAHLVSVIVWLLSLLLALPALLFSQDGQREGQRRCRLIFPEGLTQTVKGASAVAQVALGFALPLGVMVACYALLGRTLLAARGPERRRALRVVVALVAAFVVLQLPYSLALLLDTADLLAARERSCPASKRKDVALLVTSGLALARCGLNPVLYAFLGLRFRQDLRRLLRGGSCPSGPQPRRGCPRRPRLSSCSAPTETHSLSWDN
Assay: Calcium assay of human CCR10 (inhibition of CTACK-induced increase in intracellular calcium ion concentration in hCCR10G16 cells)
Assay type: cell-based
Conditions: test compound 100 nmol/L, human recombinant CTACK, hCCR10G16 cells (KJMGER8/Namalwa-derived, Gα16 co-expressed), FLIPR or FDSS; for inhibition at 0.1 µM: read-out: Inhibitory rate (%) for an increase in calcium ion concentration
Summary of the method: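 KJMGER8-derived hCCR10G16 cells (human CCR10 plus Gα16, expression induced 24 h with 10 nmol/L β-estradiol) were dye-loaded and preincubated with compound for 30 min at 37 °C, then stimulated with CTACK (300 nmol/L stock). Calcium flux over ~5 min (max−min fluorescence) gave percent inhibition versus DMSO control.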

inhibition at 0.1 µM [%]	Compound	Inhibitory rate (%) for an increase in calcium ion concentration [%]
> 100	CCNC(=O)NS(=O)(=O)c1cnn2c(Nc3cc(Cl)ccc3F)c(C(=O)N3CCC(c4ccc(F)cc4)CC3)cnc12 [a-34, 7-(5-Chloro-2-fluorophenylamino)-N-(ethylcarbamoyl)-6-[4-(4-fluorophenyl)piperidine-1-carbonyl]pyrazolo[1,5-a]pyrimidine-3-sulfonamide]	
96.7	CCNC(=O)NS(=O)(=O)c1cnn2c(Nc3cc(Cl)ccc3Cl)c(C(=O)N3CCC(c4ccc(F)cc4)CC3)cnc12 [a-23, 7-(2,5-Dichlorophenylamino)-N-(ethylcarbamoyl)-6-[4-(4-fluorophenyl)piperidine-1-carbonyl]pyrazolo[1,5-a]pyrimidine-3-sulfonamide]	
> 100	CC(=O)NS(=O)(=O)c1cnn2c(Nc3cc(Cl)ccc3Cl)c(C(=O)N3CCC(c4ccc(F)cc4)CC3)cnc12 [a-24, N-{7-(2,5-Dichlorophenylamino)-6-[4-(4-fluorophenyl)piperidine-1-carbonyl]pyrazolo[1,5-a]pyrimidin-3-ylsulfonyl}acetamide]	
> 100	CCNC(=O)NS(=O)(=O)c1cnn2c(Nc3cc(C)c(F)cc3Cl)c(C(=O)N3CCC(c4ccc(F)cc4)CC3)cnc12 [a-42, 7-(2-Chloro-4-fluoro-5-methylphenylamino)-N-(ethylcarbamoyl)-6-[4-(4-fluorophenyl)piperidine-1-carbonyl]pyrazolo[1,5-a]pyrimidine-3-sulfonamide]	
> 100	CC1(C(=O)NS(=O)(=O)c2cnn3c(Nc4cc(Cl)ccc4Cl)c(C(=O)N4CCC(c5ccc(F)cc5)CC4)cnc23)COC1 [a-25, N-{7-(2,5-Dichlorophenylamino)-6-[4-(4-fluorophenyl)piperidine-1-carbonyl]pyrazolo[1,5-a]pyrimidin-3-ylsulfonyl}-3-methyloxetane-3-carboxamide]	
> 100	CC(=O)NS(=O)(=O)c1cnn2c(Nc3cc(F)ccc3F)c(C(=O)N3CCC(c4ccc(F)cc4)CC3)cnc12 [a-35, N-{7-(2,5-Difluorophenylamino)-6-[4-(4-fluorophenyl)piperidine-1-carbonyl]pyrazolo[1,5-a]pyrimidin-3-ylsulfonyl}acetamide]	
> 100	CCC(=O)NS(=O)(=O)c1cnn2c(Nc3cc(Cl)ccc3Cl)c(C(=O)N3CCC(c4ccc(F)cc4)CC3)cnc12 [a-22, N-{7-(2,5-Dichlorophenylamino)-6-[4-(4-fluorophenyl)piperidine-1-carbonyl]pyrazolo[1,5-a]pyrimidin-3-ylsulfonyl}propionamide]	
> 100	Cc1cc(Nc2c(C(=O)N3CCC(c4ccc(F)cc4)CC3)cnc3c(S(=O)(=O)NC(=O)C4CC4)cnn23)c(Cl)cc1F [a-41, N-{7-(2-Chloro-4-fluoro-5-methylphenylamino)-6-[4-(4-fluorophenyl)piperidine-1-carbonyl]pyrazolo[1,5-a]pyrimidin-3-ylsulfonyl}cyclopropanecarboxamide]	
90.7	CCNC(=O)NS(=O)(=O)c1cnn2c(Nc3ccc(Cl)cc3Cl)c(C(=O)N3CCC(c4ccc(F)cc4)CC3)cnc12 [a-20, 7-(2,4-Dichlorophenylamino)-N-(ethylcarbamoyl)-6-[4-(4-fluorophenyl)piperidine-1-carbonyl]pyrazolo[1,5-a]pyrimidine-3-sulfonamide]	
> 100	CCC(=O)NS(=O)(=O)c1cnn2c(Nc3cc(C)ccc3Cl)c(C(=O)N3CCC(c4ccc(F)cc4)CC3)cnc12 [a-13, N-{7-(2-Chloro-5-methylphenylamino)-6-[4-(4-fluorophenyl)piperidine-1-carbonyl]pyrazolo[1,5-a]pyrimidin-3-ylsulfonyl}ethanecarboxamide]	

Further lines, the molecule ahead of its results:

Compound	inhibition at 0.1 µM [%]	Inhibitory rate (%) for an increase in calcium ion concentration [%]
Cc1ccc(Cl)c(Nc2c(C(=O)N3CCC4(CC3)OCc3ccccc34)cnc3c(S(=O)(=O)NC(=O)NC4CCOCC4)cnn23)c1 [a-81, 7-(2-Chloro-5-methylphenylamino)-6-[3H-spiro(isobenzofuran-1,4′-piperidine)-1′-carbonyl]-N-(tetrahydro-2H-pyran-4-ylcarbamoyl)pyrazolo[1,5-a]pyrimidine-3-sulfonamide]	62.3	
COC(=O)NS(=O)(=O)c1cnn2c(Nc3cc(C)ccc3C)c(C(=O)N3CCC(c4ccccc4)CC3)cnc12 [a-74, Methyl 7-(2,5-dimethylphenylamino)-6-(4-phenylpiperidine-1-carbonyl)pyrazolo[1,5-a]pyrimidin-3-ylsulfonylcarbamate]	> 100	
CCC(=O)NS(=O)(=O)c1cnn2c(Nc3cc(C)ccc3F)c(C(=O)N3CCC4(CC3)OCc3ccccc34)cnc12 [a-51, N-{7-(2-Fluoro-5-methylphenylamino)-6-[3H-spiro(isobenzofuran-1,4′-piperidine)-1′-carbonyl]pyrazolo[1,5-a]pyrimidin-3-ylsulfonyl}propionamide]	> 100	
O=C(c1cnc2c(S(=O)(=O)Nc3nncs3)cnn2c1Nc1cc(Cl)ccc1Cl)N1CCC(c2ccc(F)cc2)CC1 [a-78, 7-(2,5-Dichlorophenylamino)-6-[4-(4-fluorophenyl)piperidine-1-carbonyl]-N-(1,3,4-thiadiazol-2-yl)pyrazolo[1,5-a]pyrimidine-3-sulfonamide]	> 100	
Cc1ccc(Cl)c(Nc2c(C(=O)N3CCC4(CC3)OCc3ccccc34)cnc3c(S(=O)(=O)NC(=O)C4(C)COC4)cnn23)c1 [a-58, N-{7-(2-Chloro-5-methylphenylamino)-6-[3H-spiro(isobenzofuran-1,4′-piperidine)-1′-carbonyl]pyrazolo[1,5-a]pyrimidin-3-ylsulfonyl}-3-methyloxetane-3-carboxamide]	> 100	
O=C(c1cnc2c(S(=O)(=O)Nc3cccnn3)cnn2c1Nc1cc(Cl)ccc1Cl)N1CCC(c2ccc(F)cc2)CC1 [a-79, 7-(2,5-Dichlorophenylamino)-6-[4-(4-fluorophenyl)piperidine-1-carbonyl]-N-(pyridazin-3-yl)pyrazolo[1,5-a]pyrimidine-3-sulfonamide]	> 100	
O=C(NS(=O)(=O)c1cnn2c(NCc3ccccc3)c(C(=O)N3CCC(c4ccccc4)CC3)cnc12)C1CC1 [a-75, N-[7-Benzylamino-6-(4-phenylpiperidine-1-carbonyl)pyrazolo[1,5-a]pyrimidin-3-ylsulfonyl]cyclopropanecarboxamide]	89.4	
CCNC(=O)NS(=O)(=O)c1cnn2c(Nc3cc(C)ccc3Cl)c(C(=O)N3CCC4(CC3)OCc3ccccc34)cnc12 [a-44, 7-(2-Chloro-5-methylphenylamino)-N-(ethylcarbamoyl)-6-[3H-spiro(isobenzofuran-1,4′-piperidine)-1′-carbonyl]pyrazolo[1,5-a]pyrimidine-3-sulfonamide]	95.2	
CCC(=O)NS(=O)(=O)c1cnn2c(Nc3ccc(C)cc3F)c(C(=O)N3CCC4(CC3)OCc3ccccc34)cnc12 [a-48, N-{7-(2-Fluoro-4-methylphenylamino)-6-[3H-spiro(isobenzofuran-1,4′-piperidine)-1′-carbonyl]pyrazolo[1,5-a]pyrimidin-3-ylsulfonyl}propionamide]	> 100	
CCNC(=O)NS(=O)(=O)c1cnn2c(NCc3ccccc3)c(C(=O)N3CCC(c4ccccc4)CC3)cnc12 [a-76, 7-Benzylamino-N-ethylcarbamoyl-6-(4-phenylpiperidine-1-carbonyl)pyrazolo[1,5-a]pyrimidine-3-sulfonamide]	95.1	
Cc1cc(Cl)ccc1Nc1c(C(=O)N2CCC3(CC2)OCc2ccccc23)cnc2c(S(=O)(=O)NC(=O)C3CC3)cnn12 [a-46]		>100
